Data reported in EP1222183B1, “BENZOPYRAN DERIVATIVES” (priority 1999, dated 2001).

Experiments:
[1] = tested on: prostatic urethral pressure; test: Inhibition of urethral contractions induced by noradrenaline injection in anaesthetised dogs after i.v. administration; format: in vivo; details: dog; for ED50: Canis lupus familiaris, iv, dose inhibiting by 50% the urethral contractions induced by noradrenaline, read-out: UC ID50; for DBP/UC: ratio between the active doses (DBP ED25 / UC ID50)
Description: The experiments were performed according to the method of Imagawa J. et al., J. Pharmacol. Methods 22, 103-111, 1989, with substantial modifications, as follows: adult male beagle dogs, weighing 8-10 kg, were anaesthetised with pentobarbital sodium (30 mg/kg i.v. and 2 mg/kg/h i.v.), intubated and spontaneously ventilated with room air. In order to monitor systemic blood pressure (BP), a polyethylene (PE) catheter was introduced into the aortic arch through the left femoral artery. A collateral of the left femoral vein was cannulated for infusion of anaesthetic, and the right femoral vein was cannulated for administration of compounds. For intra-arterial (i.a.) injection of noradrenaline (NA), a PE catheter was introduced into the lower portion of the abdominal aorta via the right external iliac artery. Through such procedure, NA was selectively distributed to the lower urinary tract. A paramedian vertical suprapubic incision extending from the base of the pelvis to the mid-abdominal region was made and the bladder and prostate were exposed. The bladder was manually emptied with a syringe. Prostatic urethral pressure was monitored with a Mikro-tip cathe[…]) introduced into the bladder via the external urethral meatus, and withdrawn until the pressure transducer was positioned in the prostatic region of the urethra. A ligature was secured between the neck of the bladder and urethra to isolate the response of the latter and to avoid any interaction with the bladder. Another ligature was put around the Mikro-tip catheter at the external meatus, to secure the catheter itself. […] In order to compare the effects of the administered compound, dose/response curves (log dose transformation) were constructed by computing, at the peak effect, the percent decrease in diastolic blood pressure and the percent inhibition of the increase in urethral pressure induced by NA.

diastolic blood pressure = test: Effect on diastolic blood pressure in anaesthetised dogs after i.v. administration; format: in vivo; details: dog, dose lowering diastolic blood pressure by 25%
Description: The experiments were performed according to the method of Imagawa J. et al., J. Pharmacol. Methods 22, 103-111, 1989, with substantial modifications, as follows: adult male beagle dogs, weighing 8-10 kg, were anaesthetised with pentobarbital sodium (30 mg/kg i.v. and 2 mg/kg/h i.v.), intubated and spontaneously ventilated with room air. In order to monitor systemic blood pressure (BP), a polyethylene (PE) catheter was introduced into the aortic arch through the left femoral artery. A collateral of the left femoral vein was cannulated for infusion of anaesthetic, and the right femoral vein was cannulated for administration of compounds. For intra-arterial (i.a.) injection of noradrenaline (NA), a PE catheter was introduced into the lower portion of the abdominal aorta via the right external iliac artery. Through such procedure, NA was selectively distributed to the lower urinary tract. A paramedian vertical suprapubic incision extending from the base of the pelvis to the mid-abdominal region was made and the bladder and prostate were exposed. The bladder was manually emptied with a syringe. Prostatic urethral pressure was monitored with a Mikro-tip catheter (5F) introduced into the bladder via the external urethral meatus, and withdrawn until the pressure transducer was positioned in the prostatic region of the urethra. A ligature was secured between the neck of the bladder and urethra to isolate the response of the latter and to avoid any interaction with the bladder. Another ligature was put around the Mikro-tip catheter at the external meatus, to secure the catheter itself. After a stabilising period following the surgical procedure (30 minutes), in which arterial and prostatic urethral pressure were continuously monitored as basal values, i.a. administration of NA was made at intervals of 20 minutes. The doses of NA chosen were such to produce an increase of at least 100% in urethral pressure. The test compounds were administered i.v. in a cumulative manner with intervals of 15-20 minutes between administrations. I.a. injections of NA were repeated 5 minutes after every dosing of test compound with intervals of about 10 minutes between stimulations. In order to compare the effects of the administered compound, dose/response curves (log dose transformation) were constructed by computing, at the peak effect, the percent decrease in diastolic blood pressure and the percent inhibition of the increase in urethral pressure induced by NA.

[2] = molecular target: T1, human 5-HT1A-serotoninergic receptor (Homo sapiens, UniProt P08908); test: Radioligand binding ([3H]8-OH-DPAT) to cloned 5-HT1A receptor in HeLa cell membranes; details: cloned human receptor in HeLa cells, 1.2 nM [3H]8-OH-DPAT, 30 minutes at 30°C; read-out: Affinity (Ki) 5-HT1A
T1 construct: expressed in transfected cells; host or cells: HeLa (human), stably transfected
T1 sequence (P08908 1-422): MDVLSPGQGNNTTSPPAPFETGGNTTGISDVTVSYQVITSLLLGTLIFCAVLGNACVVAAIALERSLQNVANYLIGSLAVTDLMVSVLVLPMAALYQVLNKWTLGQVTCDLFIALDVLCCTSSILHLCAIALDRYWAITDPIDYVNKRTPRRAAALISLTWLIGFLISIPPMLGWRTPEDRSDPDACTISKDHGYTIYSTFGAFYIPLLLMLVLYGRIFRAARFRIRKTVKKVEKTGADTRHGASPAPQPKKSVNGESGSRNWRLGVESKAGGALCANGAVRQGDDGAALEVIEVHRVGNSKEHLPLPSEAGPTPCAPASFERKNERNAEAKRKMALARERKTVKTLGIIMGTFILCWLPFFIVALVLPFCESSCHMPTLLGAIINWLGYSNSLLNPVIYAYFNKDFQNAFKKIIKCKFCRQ

[3] = tested on: prostatic urethral pressure; details: dog, i.v., dose inhibiting by 50% the urethral contractions induced by noradrenaline; data from Leonardi A. et al. 1997; cited from earlier work

Row | SMILES | ED50 [1] [mg/kg] | DBP/UC [1] | DBP ED25 (diastolic blood pressure) [mg/kg] | Ki [2] [nM] | UC ID50 [3] [mg/kg]
1 | COc1ccc(Cl)cc1N1CCN(CCCNC(=O)c2cccc3c(=O)c(C)c(C(N)=O)oc23)CC1 [Example 1, 2-Carbamoyl-8-{3-[4-(5-chloro-2-methoxyphenyl)-1-piperazinyl]-propylcarbamoyl}-3-methyl-4-oxo-4H-1-benzopyran] | 0.0118 | 234.7 | 2.769 | – | –
2 | CCOC(=O)c1oc2c(C(=O)NCCCN3CCN(c4cc(Cl)ccc4OC)CC3)cccc2c(=O)c1C [Example 4, 2-Ethoxycarbonyl-8-{3-[4-(5-chloro-2-methoxyphenyl)-1-piperazinyl]-propylcarbamoyl}-3-methyl-4-oxo-4H-1-benzopyran] | 0.0023 | 71.0 | 0.1633 | – | –
3 | COc1ccc(OCC(F)(F)F)cc1N1CCN(CCCNC(=O)c2cccc3c(=O)c(C)c(C(N)=O)oc23)CC1 [Example 9, 2-Carbamoyl-8-<3-{4-[2-methoxy-5-(2,2,2-trifluoroethoxy)-phenyl]-1-piperazinyl}-propylcarbamoyl>-3-methyl-4-oxo-4H-1-benzopyran] | – | – | – | > 1000 | –
4 | Cc1c(-c2ccccc2)oc2c(C(=O)NCCCN3CCN(c4ccccc4OCC(F)(F)F)CC3)cccc2c1=O [Example 15, 8-<3-{4-[2-(2,2,2-Trifluoroethoxy)-phenyl]-1-piperazinyl}propylcarbamoyl>-3-methyl-4-oxo-2-phenyl-4H-1-benzopyran] | 0.0049 | 612 | 3.001 | – | –
5 | COc1ccc(C#N)cc1N1CCN(CCCNC(=O)c2cccc3c(=O)c(C)c(-c4ccccc4)oc23)CC1 [Example 18, 8-{3-[4-(5-Cyano-2-methoxyphenyl)-1-piperazinyl]-propylcarbamoyl}-3-methyl-4-oxo-2-phenyl-4H-1-benzopyran] | 0.0341 | 38.05 | 1.2976 | – | –
6 | Cc1c(-c2ccccc2)oc2c(C(=O)NCCCN3CCN(c4cc(Cl)ccc4OCC(F)(F)F)CC3)cccc2c1=O [Example 22, 8-<3-{4-[5-Chloro-2-(2,2,2-trifluoroethoxy)-phenyl]-1-piperazinyl}-propylcarbamoyl>-3-methyl-4-oxo-2-phenyl-4H-1-benzopyran] | 0.0195 | 64.92 | 1.266 | – | –
7 | COc1cc2nc(N3CCN(C(=O)C4CCCO4)CC3)nc(N)c2cc1OC (centres unmarked) [Terazosin, terazosin] | – | – | – | – | 0.0206
